Data as given in patent US10413541B2, “Oxabicycloheptanes and oxabicycloheptenes for the treatment of depressive and stress disorders” (LIXTE BIOTECHNOLOGY, INC., priority 2015, dated 2019).
Like-named read-outs stand apart in the source and are kept apart here.

Key:
[1] = test system: cancer cells; details: cited from earlier work; for Anti-cancer activity when used alone: mouse model systems (Lu et al. 2009a)
[2] = test system: GABAB-GIRK currents in LHb neurons; test: In vivo LB100 treatment after foot-shock exposure (FsE), I-baclofen recorded in LHb slices; parameters: species or system mice; details: for FsE-induced decrease in I-baclofen (CTRL vs FsE): 7 days after FsE; for FsE-induced I-baclofen attenuation (CTRL vs FsE): one day after FsE
Protocol: (§1) The inescapable shock procedure was previously described in Stamatakis and Stuber 2012. Briefly, we placed mice into standard mouse behavioral chambers (Imetronics) equipped with a metal grid floor. We let them to habituate at the new environment for 5 m. In a 20 m session animals received either 19 or 0 unpredictable foot shocks (1 mA, 500 ms) with an interstimulus interval of 30, 60 or 90 s. We anesthetized mice for patch-clamp electrophysiology 1 h, 24 h, 7 d, 14 d or 30 d after the session ended.
Cell-attached recordings in ACSF were performed in GΩ seal with a Vc=0 and Hc=0. Whole-cell voltage clamp recordings were achieved to measure GABAB-GIR currents in presence of Bicuculine (10 μM), NBQX (20 μM) and AP5 (50 μM). […] GABAB-GIRK currents were confirmed by antagonism with either 10 μM of CGP54626, a specific GABAB antagonist or 1 mM Ba^2, a selective inhibitor of inward rectifiers. For the GTPγS experiment, 100 μM of GTPγS was added to the internal solution in place of Na3GTP.
(§2) For LB treatment experiments, mice were injected with LB (1.5 mg/Kg i.p.) or saline 6-8 hours after the FsE. The effects of the treatment on the LHb excitability and GABAB-GIRKs currents as well as the behavioural assay were assessed at day 1 or 7. For both electrophysiology and behaviour once treated the animal were housed in groups of 4-6 and let undisturbed until the day of the test.

[3] = test system: LHb neurons; test: In vivo LB100 treatment after FsE, LHb neuronal excitability (input-output curve) in slices; parameters: species or system mice; details: LB100 1.5 mg/kg ip 6-8 h after FsE
Protocol: as §1
For the Okadaic acid (OA) and the CaMKII inhibitor KN93 experiments, respectively 100 nM of OA or 10 μM of KN93 were added in the internal solution. For the PP2A inhibitor LB100 experiments, LB100 (0.1 μM) was applied in the bath. Miniature excitatory postsynaptic currents (mEPSCs) were recorded in voltage-clamp mode at −60 mV in presence of bicuculine (10 μM) and TTX (1 μM). Miniature inhibitory postsynaptic currents (mIPSCs) were recorded (−60 mV) in presence of NBQX (20 μM) and TTX (1 μM). EPSCs and IPSCs were evoked through an ACSF filled monopolar glass electrode placed 200 μm from the recording site in the stria medullaris. AMPA:NMDA ratios of evoked-EPSC were obtained by AMPA-EPSC −60 mV/NMDA-EPSCs at +40 mV. Rectification Index (RI) was computed by […]-60/AMPA-EPSC+40. For the experiments in which high-frequency stimulation trains were used to determine presynaptic release probability, QX314 (5 mM) was included in the internal solution to prevent the generation of sodium spikes. Current-clamp experiments, were performed by a series of current steps (negative to positive) injected to induce action potentials (5-10 pA injection current per step, 800 ms).
as §2

[4] = test system: GABAB-GIRK currents in LHb neurons; type: cell-based, mice; details: LB100 0.1 μM in the bath; for I-baclofen current: mean±s.e.m.
[5] = LB100 1.5 mg/kg ip 6-8 h after FsE, 1.5 mg/kg
[6] = LB100 1.5 mg/kg ip 6-8 h after FsE, listed as LB-100, 1.5 mg/kg

## CN1CCN(C(=O)C2C(C(=O)O)[C@H]3CC[C@@H]2O3)CC1 (some centres unmarked) [LB100]
[1]; in vivo
  Toxicity in combination with standard cytotoxic anti-cancer drugs: without observable increase in toxicity
[1]
  Anti-cancer activity when used alone: has anti-cancer activity
[1]; listed as LB-100
  Anti-cancer activity when used alone: inhibits the growth of cancer cells
[1]; with temozolomide, doxorubicin, docetaxel
  Potentiation in vivo of anti-tumor activity of standard cytotoxic anti-cancer drugs: significantly potentiates
[2]; LB100 1.5 mg/kg ip 6-8 h after FsE protocol, recorded one day after, CTRL mice
  I-baclofen current: 93.88±18.37 pA
[2]; [5]
  FsE-induced decrease in I-baclofen (CTRL vs FsE): able to revert
  FsE-induced I-baclofen attenuation (CTRL vs FsE): not present
[2]; [6]
  FsE-induced decrease in I-baclofen (CTRL vs FsE): comparable
  FsE-induced I-baclofen attenuation (CTRL vs FsE): comparable
[2]; LB100 1.5 mg/kg ip 6-8 h after FsE, recorded one day after, FsE mice
  I-baclofen current: 97.00±18.05 pA
[2]; single injection of LB100 6-8 hours after the shock protocol, recorded 7 days later, CTRL mice
  I-baclofen current: 95.54±30.00 pA
[2]; single injection of LB100 6-8 hours after the shock, recorded 7 days later, FsE mice
  I-baclofen current: 92.97±14.84 pA
[3]; 7 days after, 1.5 mg/kg
  LHb neuronal excitability, input-output curve CTRL vs FsE: able to abolish the increase in excitability
[3]; 7 days after, listed as LB-100, 1.5 mg/kg
  LHb neuronal excitability, input-output curve CTRL vs FsE: normalized
[3]; one day after, 1.5 mg/kg
  LHb neuronal excitability, input-output curve CTRL vs FsE: did not show any difference
[3]; one day after, listed as LB-100, 1.5 mg/kg
  LHb neuronal excitability, input-output curve CTRL vs FsE: normalized
[4]
  FsE-induced inhibition of GABAB-GIRK currents (I-baclofen CTRL vs FsE): sufficient to rescue
[4]; slices from CTRL mice
  I-baclofen current: 88.41±18.64 pA
[4]; slices from FsE mice
  I-baclofen current: 85.09±0.67 pA
[4]; listed as LB-100
  FsE-induced inhibition of GABAB-GIRK currents (I-baclofen CTRL vs FsE): comparable
